In article PMC11111895, “Identification of a dCache-type chemoreceptor in Campylobacter jejuni that specifically mediates chemotaxis towards methyl pyruvate” (Frontiers in Microbiology, 2024):

Legend:
Tlp11-LBD N268A = assay: MST of Tlp11-LBD mutant N268A; format: binding, C. jejuni ATCC 33560; details: max ligand 2.5 mM
Method: (§1) The His-tag dye (MO-L018 RED-tris-NTA, NanoTemper, Germany) was adjusted to a final concentration of 25 nM and used to label the purified protein with a His-tag. The compound was diluted to a series of concentrations in phosphate-buffered saline ([Duan et al., 2023]) with 0.05% Tween 20 (PBS-T) buffer and mixed in a ratio of 1:1 with protein. The mixtures were loaded into capillaries (Monolith™ Series capillaries, NanoTemper) by means of capillary action. Thermophoresis was measured using a Monolith™ NT.115 (NanoTemper) instrument, with 40% excitation and 40% MST power configuration. The time-traces of changes in fluorescence, which reflected the thermophoretic movement of labeled protein affected by different concentrations of compound were recorded, and the dose–response curves were fitted with the ‘temperature jump and thermophoresis’ mode. Data analysis was performed using MO. Affinity Analysis version 2.3 (NanoTemper) and Prism version 8.0.2 (GraphPad Software, United States).
(§2) In order to confirm the contribution of L264, N268, I276, Y291, V318, and T320 to the binding to methyl pyruvate, we generated Tlp11-LBD proteins with an alanine point mutation at individual residues, to obtain the mutant proteins L264A, N268A, I276A, Y291A, V318A, and T320A, and then analyzed the binding affinities of methyl pyruvate to these mutants using MST. […]

Tlp11-LBD V318A = assay: MST of Tlp11-LBD mutant V318A; format: binding, C. jejuni ATCC 33560; details: max ligand 2.5 mM
Method: as §1, §2

Tlp11-LBD L264A = assay: MST of Tlp11-LBD mutant L264A; format: binding, C. jejuni ATCC 33560; details: max ligand 2.5 mM
Method: as §1, §2

[1] = system: C. jejuni WT NCTC 11168 cells; format: cell-based, Campylobacter jejuni; details: WT NCTC 11168 cells; microfluidic device, 30 min
[2] = system: Tlp11[1-343]-PhoQ[202-486] (Tlp343PhoQ202); assay: Hybrid kinase Tlp11-PhoQ GFP reporter assay; format: cell-based, E. coli MG1655/ΔPhoQ; details: stimulation for 40 min
Method: The reporter plasmid pUA66-PmgtLA-GFP and the plasmid encoding the hybrid kinase were together transformed into E. coli MG1655/ΔPhoQ strain. E. coli cells containing the reporter and Tlp11-PhoQ chimera were incubated in Medium A, at 37°C, with shaking (200 rpm), until an OD600 of 0.4 was attained, following which different concentrations of methyl pyruvate were added to the medium and the cells were incubated for 40 min. The fluorescence intensity of the cells was monitored using a plate reader (Varioskan™ LUX, Life Technologies) equipped with a 488 nm laser and a 528/12 bandpass filter. The acquired data were analyzed using Prism 8.0.2.
To construct the signal input module, we fused the Tlp11-LBD with the PhoQ cytoplasmic region, to design the Tlp11-PhoQ hybrid kinases (Supplementary Figure S6), Tlp11[1-337]-PhoQ[200-486] (Tlp337PhoQ200), Tlp11[1-339]-PhoQ[200-486] (Tlp339PhoQ200), Tlp11[1-339]-PhoQ[201-486] (Tlp339PhoQ201), Tlp11[1-340]-PhoQ[202-486] (Tlp340PhoQ202), Tlp11[1-340]-PhoQ[200-486] (Tlp340PhoQ200), Tlp11[1-341]-PhoQ[202-486] (Tlp341PhoQ202), Tlp11[1-342]-PhoQ[[…]] (Tlp342PhoQ202), Tlp11[1-343]-PhoQ[202-486] (Tlp343PhoQ202), which connected Tlp11 and PhoQ in TM2 (Supplementary Figure S7C). The activity of each chimera in sensing methyl pyruvate was determined by measuring the fluorescence intensity of GFP in the E. coli MG1655/ΔPhoQ strain.

[3] = biological target: Tlp11-LBD homologue (WP_115570384.1, residues 34-332) (Helicobacter equorum, UniProt A0A3D8ITS8); assay: MST of Tlp11-LBD homologue; format: binding
Sequence of Tlp11-LBD homologue (WP_115570384.1, residues 34-332) (A0A3D8ITS8 entry or part of it): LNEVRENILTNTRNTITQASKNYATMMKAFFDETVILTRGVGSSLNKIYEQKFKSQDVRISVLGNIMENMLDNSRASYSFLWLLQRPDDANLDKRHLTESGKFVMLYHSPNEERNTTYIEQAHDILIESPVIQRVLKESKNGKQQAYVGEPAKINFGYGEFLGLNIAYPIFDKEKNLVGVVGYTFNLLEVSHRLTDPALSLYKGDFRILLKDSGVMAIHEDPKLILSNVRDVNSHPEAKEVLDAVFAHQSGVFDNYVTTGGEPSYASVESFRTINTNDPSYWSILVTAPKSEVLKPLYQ
Method: as §1
(§3) To evaluate whether these potential Tlp11-LBD homologues could bind to methyl pyruvate, we conducted a structural analysis of the LBDs of six chemoreceptors from C. coli, H. equorum, H. himalayensis, H. mesocricetorum, H. ganmani, and C. upsaliensis using Alphafold 2. […]

[4] = biological target: Tlp11-LBD homologue (WP_115552006.1, residues 31-329) (Helicobacter ganmani, UniProt A0A3D8IAJ9); assay: MST of Tlp11-LBD homologue; format: binding; details: H. ganmani LBD
Sequence of Tlp11-LBD homologue (WP_115552006.1, residues 31-329) (A0A3D8IAJ9 entry or part of it): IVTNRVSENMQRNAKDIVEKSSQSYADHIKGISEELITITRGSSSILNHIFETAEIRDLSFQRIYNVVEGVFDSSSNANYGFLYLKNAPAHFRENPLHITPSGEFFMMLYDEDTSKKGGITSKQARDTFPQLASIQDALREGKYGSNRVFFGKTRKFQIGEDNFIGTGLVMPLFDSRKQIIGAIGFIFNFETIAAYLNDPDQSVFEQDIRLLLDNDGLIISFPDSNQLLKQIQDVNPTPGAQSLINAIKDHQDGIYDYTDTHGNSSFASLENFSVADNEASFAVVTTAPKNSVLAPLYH
Method: as §1, §3

Tlp11-LBD Y291A = assay: MST of Tlp11-LBD mutant Y291A; format: binding, C. jejuni ATCC 33560; details: max ligand 2.5 mM
Method: as §1, §2

Tlp11-LBD I276A = assay: MST of Tlp11-LBD mutant I276A; format: binding, C. jejuni ATCC 33560; details: max ligand 2.5 mM
Method: as §1, §2

## COC(=O)C(C)=O [methyl pyruvate, Methyl pyruvate]
Tlp11-LBD N268A
  Kd (binding curve fit): unable to obtain fitted Kd values
Tlp11-LBD V318A
  Kd (binding curve fit): unable to obtain fitted Kd values
Tlp11-LBD L264A
  Kd (binding curve fit): unable to obtain fitted Kd values
[1]
  chemotactic response: failed to show any chemotaxis
[2]
  response (GFP fluorescence intensity) of Tlp343PhoQ202: significant concentration-dependence
[3]
  Kd: 340 ± 43 µM
[4]
  Kd: 1600 ± 200 µM
Tlp11-LBD Y291A
  Kd (binding curve fit): unable to obtain fitted Kd values
Tlp11-LBD I276A
  Kd (binding curve fit): unable to obtain fitted Kd values
